“And” between values parts separate entries of the source, which are not always exact repeats. Equal entries are not always repeated.
What was measured:
5HT2A = 5HT2A (Homo sapiens, UniProt P28223); assay: β-arrestin2 recruitment (Tango); assay type: cell-based; details: single replicate values
DRD4 (D4.4 variant) = target: T1, DRD4 (D4.4 variant) (Homo sapiens, UniProt P21917); assay: β-arrestin2 recruitment (Tango); assay type: cell-based; details: for Fig_S10c concentration-response source data, compound alone (replicates): agonist mode
T1 sequence (P21917 1-419): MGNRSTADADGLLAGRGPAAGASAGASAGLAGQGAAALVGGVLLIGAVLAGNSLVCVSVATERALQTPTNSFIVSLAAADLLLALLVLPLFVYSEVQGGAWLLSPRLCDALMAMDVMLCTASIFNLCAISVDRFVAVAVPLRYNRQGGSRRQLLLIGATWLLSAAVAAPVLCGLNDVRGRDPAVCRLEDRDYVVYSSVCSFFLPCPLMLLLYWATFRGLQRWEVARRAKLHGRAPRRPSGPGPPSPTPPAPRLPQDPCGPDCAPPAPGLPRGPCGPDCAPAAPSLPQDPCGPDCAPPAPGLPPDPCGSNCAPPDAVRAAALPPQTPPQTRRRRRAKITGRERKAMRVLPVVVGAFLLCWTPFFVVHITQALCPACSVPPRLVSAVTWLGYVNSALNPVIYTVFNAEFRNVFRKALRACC

[1] = system: serotonin receptor (subtype not given; reference agonist serotonin); assay: β-arrestin2 recruitment (Tango), agonist activity, source data Fig_S10m; assay type: cell-based, human; details: drug alone
[2] = system: serotonin receptor of Fig_S10g (subtype not named); assay: β-arrestin2 recruitment (Tango), agonist activity, panel Fig_S10g (serotonin as reference; receptor not given); assay type: cell-based, human
DRD2 F1103.28A = DRD2 F1103.28A (Homo sapiens, UniProt P14416, F110A); assay: Gαi/o-mediated cAMP inhibition (GloSensor), mutant; assay type: cell-based; parameters: expressed in transfected cells; host or cells: HEK293T (ATCC CRL-11268)
DRD2 F1103.28A, sequence (P14416 whole entry F110A): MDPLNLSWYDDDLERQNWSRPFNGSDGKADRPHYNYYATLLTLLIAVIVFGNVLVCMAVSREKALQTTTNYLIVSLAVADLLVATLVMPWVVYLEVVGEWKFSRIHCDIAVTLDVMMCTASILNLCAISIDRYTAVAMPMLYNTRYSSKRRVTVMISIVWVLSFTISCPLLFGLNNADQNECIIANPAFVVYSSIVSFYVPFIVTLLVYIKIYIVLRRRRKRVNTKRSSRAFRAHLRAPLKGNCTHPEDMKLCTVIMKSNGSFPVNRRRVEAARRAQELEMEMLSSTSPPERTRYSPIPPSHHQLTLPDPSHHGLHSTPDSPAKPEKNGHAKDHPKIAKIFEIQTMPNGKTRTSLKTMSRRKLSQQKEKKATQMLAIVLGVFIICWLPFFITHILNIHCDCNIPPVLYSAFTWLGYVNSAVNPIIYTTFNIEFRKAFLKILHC

5HT2A, sequence (P28223 whole entry): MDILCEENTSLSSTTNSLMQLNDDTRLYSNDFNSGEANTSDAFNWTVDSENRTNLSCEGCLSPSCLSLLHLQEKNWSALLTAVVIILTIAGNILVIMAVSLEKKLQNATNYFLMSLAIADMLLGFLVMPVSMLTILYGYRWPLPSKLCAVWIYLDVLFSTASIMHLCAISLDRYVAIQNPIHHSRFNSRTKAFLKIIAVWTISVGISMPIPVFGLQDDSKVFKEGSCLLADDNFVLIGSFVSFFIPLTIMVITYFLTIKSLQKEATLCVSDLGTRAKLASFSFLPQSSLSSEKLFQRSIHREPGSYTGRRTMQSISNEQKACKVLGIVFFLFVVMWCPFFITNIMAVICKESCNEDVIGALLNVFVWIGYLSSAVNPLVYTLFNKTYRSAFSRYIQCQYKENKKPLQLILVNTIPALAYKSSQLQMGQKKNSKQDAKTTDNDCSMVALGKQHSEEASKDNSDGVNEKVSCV

With `CCOc1cccc2cc([C@H](C)NCC3(O)CCCCC3)oc12` [O4SE6] the “Fig_S10k dose-response, drug alone (agonist mode), β-arrestin2 recruitment” value (“Fig_S10k dose-response, drug alone” for short) (5HT2A; Log[Drug] -6.52) was 0.09538, the “Fig_S10k dose-response, drug alone” value (5HT2A; Log[Drug] -7) was 0.3962 and -0.2054 (2×) and 5.128 and 7.247 and 2.453 and 3.603 and 2.6312 and 1.871 and the “Fig_S10k dose-response, drug alone” value (5HT2A; Log[Drug] -7.52) was 1.849 and 5.363 and 7.4248 and 2.33 and -2.369 and -1.196 and 2.4436 and 3.608 and 1.304. The “Fig_S10k dose-response, drug alone” value (5HT2A; Log[Drug] -8) was 0.1101 and -1.394 and 0.08804 and 0.4387 and -1.323 and -0.5329 and 3.218 and 3.021 and 2.073, the “Fig_S10k dose-response, drug alone” value (5HT2A; Log[Drug] -8.52) was 0.3815 and 3.632 and -0.1981 and 19.2051 and 7.825 and 6.317 and 2.439 and 3.208 and 2.251 and the “Fig_S10k dose-response, drug alone” value (5HT2A; Log[Drug] -9) was 0.6676 and 2.15 and 0.4035 and 0.1625 and 2.551 and 3.851 and 2.828 and 4.478 and 2.251. For the same compound, the “Fig_S10k dose-response, drug alone” value (5HT2A; Log[Drug] -9.52) was 4.806 and 0.08804 and -0.4842 and 4.631 and 0.2307 and -0.1755 and 1.9722 and 24.5707 and 1.991, the “Fig_S10k dose-response, drug alone” value (5HT2A; Log[Drug] -10) was -0.2054 and -0.7704 and 0.7117 and -0.5849 and 0.2632 and -1.306 and 3.401 and 3.333 and 0.9043 and the “Fig_S10k dose-response, drug alone” value (5HT2A; Log[Drug] -10.52) was -0.4696 and 0.1247 and -0.7704 and 2.297 and 0.5134 and 0.234 and 6.104 and 1.842 and 5.349. The “Fig_S10k dose-response, drug alone” value (5HT2A; Log[Drug] -11) was -0.4842 and -0.7704 and -1.0785 and -0.00325 and -1.534 and 4.039 and 3.002 and 2.646 and 1.477, the “Fig_S10k dose-response, drug alone” value (5HT2A; Log[Drug] -11.52) was -0.2421 and 0.9685 and 5.092 and -0.6109 and 22.6335 and -1.787 and 6.47 and 2.973 and 3.016 and the “Fig_S10k dose-response, drug alone” value (5HT2A; Log[Drug] -12) was 13.3089 and 0.9391 and 1.555 and -1.157 and -0.9684 and -1.794 and 7.23 and 11.8669 and 5.71. For the same compound, the EC50 (DRD4 (D4.4 variant); DRD4, Tango, read-out: EC50 ± SEM) was over 10 µM, the “Fig_S10c concentration-response source data, compound alone (replicates)” value (DRD4 (D4.4 variant); Log[Drug] -5) was 6.217 and 2.763 and 2.001 and 1.287 and 1.775 and 4.058 and 4.003 and 0.06427 and 0.2106 and the “Fig_S10c concentration-response source data, compound alone (replicates)” value (DRD4 (D4.4 variant); Log[Drug] -5.52) was 2.6039 and -1.106 and -1.946 and -0.4701 and 1.404 and 2.39 and 0.8979 and 0.0552 and 0.08381. The “β-arrestin2 recruitment response at DRD4 (source data, replicate values)” value (from here on “β-arrestin2 recruitment response at DRD4”) (DRD4 (D4.4 variant); Log[Drug] -6) was 2.086, the “Fig_S10c concentration-response source data, compound alone (replicates)” value (DRD4 (D4.4 variant); Log[Drug] -6) was 3.584 and -1.188 and -0.584 and -0.6588 and 0.8796 and 1.83 and 0.7762 and 0.03516 and 0.171 and the “β-arrestin2 recruitment response at DRD4” value (DRD4 (D4.4 variant); Log[Drug] -6.52) was 1.505 and 1.478 and 5.593 and -1.936 and -0.8155 and 0.5983 and 2.508 and 1.037 and -0.4712. The “Fig_S10c concentration-response source data, compound alone (replicates)” value (DRD4 (D4.4 variant); Log[Drug] -6.52) was 1.007 and 4.325 and 1.323 and -0.8974 and 1.527 and -0.05366 and -0.1047 and 0.03541 and 0.08444, the “β-arrestin2 recruitment response at DRD4” value (DRD4 (D4.4 variant); Log[Drug] -7) was 2.288 and 4.238 and 0.7634 and -1.02 and 3.3404 and -2.026 and 1.575 and 0.945 and -0.6741 and the “Fig_S10c concentration-response source data, compound alone (replicates)” value (DRD4 (D4.4 variant); Log[Drug] -7) was 1.079 and -1.731 and -1.221 and -1.369 and 0.6898 and 0.678 and 1.948 and 0.1059 and 0.1355. For the same compound, the “β-arrestin2 recruitment response at DRD4” value (DRD4 (D4.4 variant); Log[Drug] -7.52) was 1.649 and 0.1326 and 3.251 and -1.741 and -0.5217 and -0.1424 and -0.5236 and 0.6819 and 0.4869, the “β-arrestin2 recruitment response at DRD4” value (DRD4 (D4.4 variant); Log[Drug] -8) was 0.1559 and 0.6003 and -0.215 and 3.989 and -1.66 and -2.089 and 1.626 and 2.253 and 0.1073 and the “β-arrestin2 recruitment response at DRD4” value (DRD4 (D4.4 variant); Log[Drug] -8.52) was 0.09319 and 0.08781 and 1.238 and -1.884 and -2.01 and 2.354 and 0.733 and 0.839 and 0.1558. For the same compound, the “β-arrestin2 recruitment response at DRD4” value (DRD4 (D4.4 variant); Log[Drug] -9) was 1.025 and 0.8745 and 0.8477 and 1.633 and -1.008 and -1.74 and 1.682 and 0.09555 and 2.31, the “β-arrestin2 recruitment response at DRD4” value (DRD4 (D4.4 variant); Log[Drug] -9.52) was 1.007 and 1.419 and 7.892 and -0.8689 and -1.296 and 0.8476 and 1.4149 and 0.894 and 0.2094 and the “β-arrestin2 recruitment response at DRD4” value (DRD4 (D4.4 variant); Log[Drug] -10) was 1.797 and 0.7921 and 2.561 and -1.944 and -1.43 and -2.445 and 0.6793 and 0.5811 (2×). For the same compound, the “β-arrestin2 recruitment response at DRD4” value (DRD4 (D4.4 variant); Log[Drug] -10.52) was 1.808 and 0.4319 and 2.3763 and 1.191 and 0.9847 and -1.294 and 0.1099 and -0.2474 and -0.3547, the “β-arrestin2 recruitment response at DRD4” value (DRD4 (D4.4 variant); Log[Drug] -11) was 0.1559 and 1.383 and -0.06631 and 0.9882 and -1.444 and -1.642 and 1.271 and -0.5746 and 1.065 and the “β-arrestin2 recruitment response at DRD4” value (DRD4 (D4.4 variant); Log[Drug] -11.52) was -0.1308 and 0.7778 and 1.385 and -1.934 and -1.503 and -0.7069 and -0.466 and 1.013 and -1.209. The “response, Fig_S10m, replicate values” ([1]; Log[Drug] -10) was -3 and -0.8547 and -1.711 and 1.274 and 0.6519 and 0.6372 and 3.446 and 2.684 and 1.5611, the “response, Fig_S10m, replicate values” ([1]; Log[Drug] -10.52) was -1.057 and 0.5825 and 1.112 and 0.2883 and -0.05325 and 2.637 and -1.4637 and 2.006 and 9.099 and the “response, Fig_S10m, replicate values” ([1]; Log[Drug] -11) was -3.4971 and -1.766 and 0.3518 and 1.196 and 0.9733 and 1.78 and -2.611 and -3.973 and 1.645. The “response, Fig_S10m, replicate values” ([1]; Log[Drug] -11.52) was -2.165 and -1.698 and -2.094 and 0.786 and 2.079 and 0.9742 and -3.099 and -0.8266 and -0.3396, the “response, Fig_S10m, replicate values” ([1]; Log[Drug] -12) was 0.1375 and -0.9459 and 1.244 and -0.4049 and 1.325 and 0.3957 and -1.831 and -2.73 and 1.919 and the “response, single replicate of concentration-response curve” value (“response, single replicate” below) ([2]; Log[Drug] -6.52, drug alone) was -6.59. For the same compound, the “response, single replicate” value ([2]; Log[Drug] -7, drug alone) was -3.19 and -7.082 and 4.545 and 9.195 and -2.738 and -3.211 and 7.129 and -1.468 and 1.444, the “response, single replicate” value ([2]; Log[Drug] -7.52, drug alone) was -9.03 and -3.911 and 11.866 and -9.097 and -3.819 and 15.0981 and -7.146 and 2.056 and -13.2444 and the “response, single replicate” value ([2]; Log[Drug] -8, drug alone) was -6.944 and -3.717 and -3.146 and 13.9874 and -6.035 and -6.807 and 15.6877 and -18.2271 and -10.0032. For the same compound, the “response, single replicate” value ([2]; Log[Drug] -8.52, drug alone) was -4.818 and -1.578 and 1.598 and 2.984 and 0.747 and -7.738 and -15.1053 and -13.4017 and -9.68, the “response, single replicate” value ([2]; Log[Drug] -9, drug alone) was -4.766 and 4.75 and -7.577 and 4.415 and 0.09191 and 14.1047 and 1.581 and -6.014 and 1.453 and the “response, single replicate” value ([2]; Log[Drug] -9.52, drug alone) was -5.307 and -4.4569 and -8.217 and -4.562 and -1.4705 and 8.897 and -2.656 and -20.9208 and -10.1255. The “response, single replicate” value ([2]; Log[Drug] -10, drug alone) was -5.416 and -3.999 and 8.581 and -6.089 and 12.3409 and -9.7675 and -12.7406 and -13.5007 and -15.0762, the “response, single replicate” value ([2]; Log[Drug] -10.52, drug alone) was -6.121 and -0.8987 and -0.5671 and -2.839 and 2.161 and 0.6785 and -9.456 and -4.939 and -9.345 and the “response, single replicate” value ([2]; Log[Drug] -11, drug alone) was -4.41 and -4.674 and 2.4299 and -4.435 and -1.821 and -1.439 and -6.281 and -6.238 and -10.7545. The “response, single replicate” value ([2]; Log[Drug] -11.52, drug alone) was -9.9476 and -4.984 and -8.874 and -7.243 and 10.0217 and 14.7168 and -21.4945 and -11.4709 and -8.23, the “response, single replicate” value ([2]; Log[Drug] -12, drug alone) was 2.568 and -7.302 and 4.735 and 18.6257 and 12.38 and 36.6159 and 18.9202 and -0.5417 and 1.31 and the EC50 (DRD2 F1103.28A) was over 10 µM.

Reference: article PMC7044277 (Nature Communications, 2020)
